Data as given in paper PMC9763054 (Nature, 2021).

Target: human CB1 (Homo sapiens, UniProt P21554)
Type: cell-based

human CB1, sequence (P21554 whole entry): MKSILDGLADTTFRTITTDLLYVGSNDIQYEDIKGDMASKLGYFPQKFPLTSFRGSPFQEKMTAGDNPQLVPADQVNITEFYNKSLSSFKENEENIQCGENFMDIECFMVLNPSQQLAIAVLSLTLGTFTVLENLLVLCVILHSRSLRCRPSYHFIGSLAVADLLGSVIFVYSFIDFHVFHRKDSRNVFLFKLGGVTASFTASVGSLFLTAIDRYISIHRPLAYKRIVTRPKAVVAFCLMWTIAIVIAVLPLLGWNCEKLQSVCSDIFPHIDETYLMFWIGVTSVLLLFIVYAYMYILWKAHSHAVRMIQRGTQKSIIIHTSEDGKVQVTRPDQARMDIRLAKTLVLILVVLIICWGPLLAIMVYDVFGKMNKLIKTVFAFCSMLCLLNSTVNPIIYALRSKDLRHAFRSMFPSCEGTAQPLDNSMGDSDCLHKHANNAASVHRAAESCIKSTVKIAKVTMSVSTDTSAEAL

## CCCCCCC(C)(C)c1ccc([C@@H]2C[C@H](O)CC[C@H]2CCCO)c(O)c1 [CP55940]
  CB1 potency measured in agonist mode: 17 nM
